Patent US8889668B2, “Oxadiazole diaryl compounds” (Merck Serono SA, priority 2007, dated 2014)
pEC50, pKi: −log10 of the molar value.

Tests used:
S1P1 [1] = target: T1, S1P1 (Homo sapiens (Human), UniProt P21453); test: Receptor binding assay, [33P]sphingosine 1-phosphate, membranes from CHO cells expressing S1P1; conditions: [33P]S1P 25 pM, SPA
Method: (§1) Receptor binding assay: Membranes were prepared from CHO cells expressing S1P1 or S1P3 for use in ligand and […] binding studies. Cells were suspended in 50 mM TRIS, pH 7.4, 2 mM EDTA, 250 mM Sucrose (buffer A) and 1× Complete protease inhibitor cocktail (Roche), and disrupted at 4° C. by nitrogen decompression using a cell disruption bomb (Parr Instrument). Following centrifugation at 1000 RPM for 10 min at 4° C., the supernatant was suspended in buffer A and centrifuged again at 19000 RPM for 60 min at 4° C. The pellet was then suspended in 10 mM HEPES, pH 7.4, 1 mM EDTA, 250 mM Sucrose (Buffer B), and 1× Complete EDTA-free protease inhibitor cocktail and homogenized using a potter. Membranes were flash frozen in liquid nitrogen and stored at −80° C. [33P]sphingosine 1-phosphate (3000 Ci/mmol; American Radiolabeled Chemicals, Inc.) was added to test compounds in DMSO. Membranes and WGA SPA beads (GE Healthcare) were added to give a final volume of 100 μl in 96-well plates with assay concentrations of 25 pM or 10 pM [33P]sphingosine 1-phosphate (respectively for S1P1 or S1P3), 50 mM HEPES, pH 7.5, 5 mM MgCl2, 100 mM NaCl, 0.4% fatty acid-free BSA, 1-5 μg/well of proteins and 100 μg/well of WGA SPA beads. Binding was performed for 60 min at room temperature on a shaker and bound radioactivity was measured on a PerkinElmer 1450 MicroBeta counter. Specific binding was calculated by subtracting remaining radioactivity in the presence of 1000-fold excess of unlabeled S1P. Binding data were analyzed using the GraphPad Prism program.

S1P1 [2] = target: T1, S1P1; test: 35S-GTPγS binding, membranes from CHO cells expressing S1P1; format: biochemical; conditions: 60 min 30° C., read-out: S1P1 GTPgS EC50
S1P3 = S1P3 (Homo sapiens (Human), UniProt Q99500); test: 35S-GTPγS binding, membranes from CHO cells expressing S1P3; format: biochemical; conditions: 60 min 30° C., read-out: S1P3 GTPgs EC50
Method: as §1
Measurements of ^35S-GTPγS Binding: Membranes (1 to 10 μg protein) prepared as described above, were incubated in 96-well Scintiplates (PerkinElmer) with test compounds diluted in DMSO, in 180 μl of 20 mM HEPES, pH 7.4, 10 mM MgCl2, 2 μg/well Saponin, 0.2% fatty acid free BSA (Assay buffer), 140 mM NaCl and 1.7 μM GDP. The assay was initiated with the addition of 20 μl of 1.5 nM [35S]-GTPγS (1100 Ci/mmol; GE Healthcare) in assay buffer. After 60 min incubation at 30° C. on a shaker, plates were centrifuged for 10 min at 2000 RPM. Supernatant was discarded and membrane bound radioactivity was measured on a PerkinElmer 1450 MicroBeta counter. Triplicate samples were averaged and expressed as % response relative to S1P activation in absence of compound (n=2).

T1 sequence (P21453 whole entry, species assumed): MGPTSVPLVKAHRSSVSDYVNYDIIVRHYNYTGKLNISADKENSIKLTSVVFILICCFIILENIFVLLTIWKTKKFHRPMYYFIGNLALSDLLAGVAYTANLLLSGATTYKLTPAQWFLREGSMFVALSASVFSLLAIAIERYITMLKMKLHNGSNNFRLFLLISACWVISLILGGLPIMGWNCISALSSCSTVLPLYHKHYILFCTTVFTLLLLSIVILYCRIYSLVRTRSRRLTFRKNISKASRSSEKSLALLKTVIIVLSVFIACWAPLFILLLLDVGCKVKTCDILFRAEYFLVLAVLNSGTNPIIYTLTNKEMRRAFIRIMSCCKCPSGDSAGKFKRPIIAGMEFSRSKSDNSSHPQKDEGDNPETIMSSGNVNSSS
Chain of S1P3 (Q99500 whole entry, species assumed): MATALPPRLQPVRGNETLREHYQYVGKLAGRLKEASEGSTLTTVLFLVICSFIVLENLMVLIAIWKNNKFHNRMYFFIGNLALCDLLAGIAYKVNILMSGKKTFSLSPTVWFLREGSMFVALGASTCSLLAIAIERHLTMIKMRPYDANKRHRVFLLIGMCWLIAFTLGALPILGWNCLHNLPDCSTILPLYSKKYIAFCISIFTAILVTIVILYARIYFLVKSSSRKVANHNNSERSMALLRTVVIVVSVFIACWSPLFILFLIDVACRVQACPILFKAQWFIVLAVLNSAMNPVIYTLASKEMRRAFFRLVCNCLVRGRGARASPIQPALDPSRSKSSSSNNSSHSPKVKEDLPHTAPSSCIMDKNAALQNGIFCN

| SMILES | pKi (S1P1 [1]) | pEC50 (S1P1 [2]) | pEC50 (S1P3) |
| --- | --- | --- | --- |
| COc1ccc(F)cc1-c1noc(-c2ccc(N3CCCCC3C)c([N+](=O)[O-])c2)n1 (stereo not drawn) [Compound I32, 1-{4-[3-(5-fluoro-2-methoxyphenyl)-1,2,4-oxadiazol-5-yl]-2-nitrophenyl}-2-methylpiperidine] | 9.00 | 8.70 | 5.77 |
| CC1CCCCN1c1ccc(-c2nc(-c3ccccc3OC(F)(F)F)no2)cc1C(F)(F)F (stereo not drawn) [Compound I34, 2-methyl-1-[4-{3-[2-(trifluoromethoxy)phenyl]-1,2,4-oxadiazol-5-yl}-2-(trifluoromethyl)phenyl]piperidine] | 8.30 | 8.22 | < 4.70 |
| COc1ccccc1-c1noc(-c2ccc(N3CCCCC3C)c(C(F)(F)F)c2)n1 (stereo not drawn) [Compound I35, 1-[4-[3-(2-methoxyphenyl)-1,2,4-oxadiazol-5-yl]-2-(trifluoromethyl)phenyl]-2-methylpiperidine] | 8.52 | 8.70 | 6.19 |
| Cc1cc(-c2nc(-c3ccccc3OC(F)(F)F)no2)ccc1-c1cscc1C [Compound I44, 5-[3-methyl-4-(4-methyl-3-thienyl)phenyl]-3-[2-(trifluoromethoxy)phenyl]-1,2,4-oxadiazole] | 8.30 | 8.52 | < 4.70 |
| COc1ccccc1-c1noc(-c2ccc(-c3cscc3C)c(OC)c2)n1 [Compound I48, 5-[3-methoxy-4-(4-methyl-3-thienyl)phenyl]-3-(2-methoxyphenyl)-1,2,4-oxadiazole] | 8.40 | 8.30 | 5.66 |
| Cc1ccccc1-c1ccc(-c2nc(-c3ccccc3OC(F)(F)F)no2)cc1C(F)(F)F [Compound I55, 5-[2′-methyl-2-(trifluoromethyl)biphenyl-4-yl]-3-[2-(trifluoromethoxy)phenyl]-1,2,4-oxadiazole] | 8.10 | 8.70 | < 4.52 |
| COc1ccccc1-c1noc(-c2ccc(-c3cscc3C)c(C(F)(F)F)c2)n1 [Compound I57, 3-(2-methoxyphenyl)-5-[4-(4-methyl-3-thienyl)-3-(trifluoromethyl)phenyl]-1,2,4-oxadiazole] | 8.70 | 9.00 | < 4.70 |
| COc1ccc(F)cc1-c1noc(-c2ccc(N3CCCCC3)c(C(F)(F)F)c2)n1 [Compound I60, 1-[4-[3-(5-fluoro-2-methoxyphenyl)-1,2,4-oxadiazol-5-yl]-2-(trifluoromethyl)phenyl]piperidine] | 9.00 | 8.70 | 6.21 |
| COc1ccc(F)cc1-c1noc(-c2ccc(N3CCCCC3C)c(C(F)(F)F)c2)n1 (stereo not drawn) [Compound I63, 1-[4-[3-(5-fluoro-2-methoxyphenyl)-1,2,4-oxadiazol-5-yl]-2-(trifluoromethyl)phenyl]-2-methylpiperidine] | 8.52 | 9.00 | 6.90 |
| COc1ccc(F)cc1-c1noc(-c2ccc(N3CCCCC3C)c(C#N)c2)n1 (stereo not drawn) [Compound I71, 5-[3-(5-fluoro-2-methoxyphenyl)-1,2,4-oxadiazol-5-yl]-2-(2-methylpiperidin-1-yl)benzonitrile] | 8.40 | 9.00 | 7.13 |
| COc1ccc(F)cc1-c1noc(-c2ccc(N3CCCCC3C)c(NS(C)(=O)=O)c2)n1 (stereo not drawn) [Compound I72, N-[5-[3-(5-fluoro-2-methoxyphenyl)-1,2,4-oxadiazol-5-yl]-2-(2-methylpiperidin-1-yl)phenyl]methanesulfonamide] | 7.34 | 8.10 | < 4.70 |
| COc1ccc(F)cc1-c1noc(-c2ccc(-c3ccccc3C)c(CO)c2)n1 [Compound I77, {4-[3-(5-fluoro-2-methoxyphenyl)-1,2,4-oxadiazol-5-yl]-2′-methylbiphenyl-2-yl}methanol] | 7.28 | 7.19 | 5.25 |
| COc1ccc(F)cc1-c1noc(-c2ccc(-c3ccccc3C)c(CN(C)C)c2)n1 [Compound I78, 1-{4-[3-(5-fluoro-2-methoxyphenyl)-1,2,4-oxadiazol-5-yl]-2′-methylbiphenyl-2-yl}-N,N-dimethylmethanamine] | 8.40 | 8.70 | 7.04 |
